According to PubChem BioAssay AID330 (DTP/NCI, 2004):
“And” between values parts separate entries of the source, which are not always exact repeats. Equal entries are not always repeated. Toxic doses and inconclusive results are not listed.

System: P388 leukemia ip, CD2F1 mice, survival T/C
Experiment: NCI In Vivo Anticancer Drug Screen. Data for tumor model P388 Leukemia (intraperitoneal) in CD2F1 (CDF1) mice
Settings: endpoint: median survival time, higher = longer survival
In short: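 Mice carrying the transplanted tumor received test compound or vehicle. Survival was recorded in each group, and the value is the treated-group measurement divided by that of the vehicle-treated control group.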

[1] = dose: 15.0 mg/kg/injection, schedule: Q01DX005 (ip), vehicle: saline with Tween-80
[2] = dose: 30.0 mg/kg/injection, schedule: Q01DX005 (ip), vehicle: saline with Tween-80
[3] = dose: 50.0 mg/kg/injection, schedule: Q01DX005 (ip), vehicle: saline with Tween-80
[4] = dose: 100.0 mg/kg/injection, schedule: Q01DX005 (ip), vehicle: saline with Tween-80
[5] = dose: 200.0 mg/kg/injection, schedule: Q01DX005 (ip), vehicle: saline with Tween-80
[6] = dose: 60.0 mg/kg/injection, schedule: Q01DX005 (ip), vehicle: saline with Tween-80
[7] = dose: 120.0 mg/kg/injection, schedule: Q01DX005 (ip), vehicle: saline with Tween-80
[8] = dose: 240.0 mg/kg/injection, schedule: Q01DX005 (ip), vehicle: saline with Tween-80
[9] = dose: 100.0 mg/kg/injection, schedule: Q01DX001 (ip), vehicle: saline with Tween-80
[10] = dose: 200.0 mg/kg/injection, schedule: Q01DX001 (ip), vehicle: saline with Tween-80
[11] = dose: 50.0 mg/kg/injection, schedule: Q01DX009 (ip), vehicle: saline
[12] = dose: 100.0 mg/kg/injection, schedule: Q01DX009 (ip), vehicle: saline
[13] = dose: 12.5 mg/kg/injection, schedule: Q04DX003 (ip), vehicle: saline with Tween-80
[14] = dose: 25.0 mg/kg/injection, schedule: Q04DX003 (ip), vehicle: saline with Tween-80
[15] = dose: 100.0 mg/kg/injection, schedule: Q01DX001 (ip), vehicle: Klucel (hydroxypropylcellulose) (HPC)
[16] = dose: 200.0 mg/kg/injection, schedule: Q01DX001 (ip), vehicle: Klucel (hydroxypropylcellulose) (HPC)
[17] = dose: 400.0 mg/kg/injection, schedule: Q01DX001 (ip), vehicle: Klucel (hydroxypropylcellulose) (HPC)
[18] = dose: 12.5 mg/kg/injection, schedule: Q01DX009 (ip), vehicle: saline with Tween-80
[19] = dose: 25.0 mg/kg/injection, schedule: Q01DX009 (ip), vehicle: saline with Tween-80
[20] = dose: 50.0 mg/kg/injection, schedule: Q01DX009 (ip), vehicle: saline with Tween-80
[21] = dose: 100.0 mg/kg/injection, schedule: Q01DX009 (ip), vehicle: saline with Tween-80

SMILES: CC1=CC2N(C=C1)C(c1ccccc1)=NON2c1cc(C)ccn1 (stereo not drawn)
- T/C (dose: 7.5 mg/kg/injection, schedule: Q01DX005 (ip), vehicle: saline with Tween-80): 91 % of control
- T/C [1]: 94 % of control
- T/C [2]: 91 % of control

SMILES: C=C1C(=O)OC2C/C(C)=C/CC/C(C)=C/CCC3(COC(C)=O)OC3CC12 (stereo not drawn)
- T/C (dose: 1.0 mg/kg/injection, schedule: Q01DX008 (ip), vehicle: Klucel (hydroxypropylcellulose) (HPC)): 99 % of control
- T/C (dose: 2.0 mg/kg/injection, schedule: Q01DX008 (ip), vehicle: Klucel (hydroxypropylcellulose) (HPC)): 100 % of control
- T/C (dose: 4.0 mg/kg/injection, schedule: Q01DX008 (ip), vehicle: Klucel (hydroxypropylcellulose) (HPC)): 97 % of control
- T/C (dose: 8.0 mg/kg/injection, schedule: Q01DX008 (ip), vehicle: Klucel (hydroxypropylcellulose) (HPC)): 103 % of control
- T/C (dose: 16.0 mg/kg/injection, schedule: Q01DX008 (ip), vehicle: Klucel (hydroxypropylcellulose) (HPC)): 107 % of control

SMILES: CC(C)(C)OC(=O)NC(Cc1ccc(OCc2c(Cl)cccc2Cl)cc1)C(=O)O (stereo not drawn)
- T/C [3]: 104 % of control
- T/C [4]: 100 % of control
- T/C [5]: 100 % of control

SMILES: CCc1[nH]c(=O)nc(N)c1-c1ccc(N2CCCCC2)c([N+](=O)[O-])c1
- T/C [6]: 93 % of control
- T/C [7]: 96 % of control
- T/C [8]: 97 % of control

SMILES: COc1ccccc1N=C(NC#N)C(c1ccccc1)c1ccccc1
- T/C [9]: 99 % of control
- T/C [10]: 97 % of control
- T/C (dose: 400.0 mg/kg/injection, schedule: Q01DX001 (ip), vehicle: saline with Tween-80): 93 % of control

SMILES: CCOC(=O)c1cnc2ccccn2c1=O
- T/C [11]: 90 % of control
- T/C [12]: 88 % of control

SMILES: CS(=O)(=O)OCCC[Se]Cc1ccccc1C[Se]CCCOS(C)(=O)=O
- T/C [6]: 93 % of control
- T/C [7]: 91 % of control

SMILES: CCN(CC)CCCC(C)NC1CCCc2cc3c(cc21)C(=O)c1ccccc1C3=O (stereo not drawn)
- T/C (dose: 6.25 mg/kg/injection, schedule: Q04DX003 (ip), vehicle: saline with Tween-80): 98 % of control
- T/C [13]: 94 % of control
- T/C [14]: 90 % of control

SMILES: CN(C)c1ccc(C(=O)C2(O)CCCC(C)(C)C2)cc1 (stereo not drawn)
- T/C [15]: 103 % of control
- T/C [16]: 101 % of control
- T/C [17]: 101 % of control

SMILES: CCNc1nc(NC(C)C)nc(-c2ccncc2)n1
- T/C (dose: 12.5 mg/kg/injection, schedule: Q01DX005 (ip), vehicle: Klucel (hydroxypropylcellulose) (HPC)): 108 % of control
- T/C (dose: 25.0 mg/kg/injection, schedule: Q01DX005 (ip), vehicle: Klucel (hydroxypropylcellulose) (HPC)): 96 % of control
- T/C (dose: 50.0 mg/kg/injection, schedule: Q01DX005 (ip), vehicle: Klucel (hydroxypropylcellulose) (HPC)): 101 % of control
- T/C (dose: 100.0 mg/kg/injection, schedule: Q01DX005 (ip), vehicle: Klucel (hydroxypropylcellulose) (HPC)): 108 % of control

SMILES: CCCCCCCCC(=O)Nc1ncc([N+](=O)[O-])s1
- T/C (dose: 50.0 mg/kg/injection, schedule: Q01DX009 (ip), vehicle: Klucel (hydroxypropylcellulose) (HPC)): 113 % of control
- T/C (dose: 100.0 mg/kg/injection, schedule: Q01DX009 (ip), vehicle: Klucel (hydroxypropylcellulose) (HPC)): 115 % of control
- T/C (dose: 200.0 mg/kg/injection, schedule: Q01DX009 (ip), vehicle: Klucel (hydroxypropylcellulose) (HPC)): 100 % of control

SMILES: O=C1C2CCc3cnn(-c4ccccc4)c3C2C(=O)N1c1ccccc1 (stereo not drawn)
- T/C [3]: 101 % of control
- T/C [4]: 99 % of control
- T/C [5]: 94 % of control

SMILES: O=c1[nH]n(-c2ccccc2)c2ccccc12
- T/C [13]: 94 % of control
- T/C [14]: 90 % of control
- T/C (dose: 50.0 mg/kg/injection, schedule: Q04DX003 (ip), vehicle: saline with Tween-80): 90 % of control
- T/C (dose: 100.0 mg/kg/injection, schedule: Q04DX003 (ip), vehicle: saline with Tween-80): 95 % of control

SMILES: COC(=O)c1ccnc(-c2cc(C(=O)OC)ccn2)c1
- T/C [11]: 99 % of control
- T/C [12]: 93 % of control
- T/C (dose: 200.0 mg/kg/injection, schedule: Q01DX009 (ip), vehicle: saline): 92 % of control

SMILES: Cc1cc(=O)oc2cc(OC(=O)Nc3ccc(Cl)c(Cl)c3)ccc12
- T/C (dose: 3.12 mg/kg/injection, schedule: Q01DX009 (ip), vehicle: saline): 101 % of control
- T/C (dose: 6.25 mg/kg/injection, schedule: Q01DX009 (ip), vehicle: saline): 100 % of control
- T/C (dose: 12.5 mg/kg/injection, schedule: Q01DX009 (ip), vehicle: saline): 101 % of control and 90 % of control

SMILES: CCOc1cc2c(cc1C/C=C/c1cc(OC)c(OC)c(OC)c1)OCO2
- T/C [1]: 94 % of control
- T/C [2]: 95 % of control
- T/C [6]: 95 % of control

SMILES: COc1cccc(CN2CCCN(/N=C/c3c4c(O)c5c(O)c(C)c6c(c5c3O)C(=O)C(C)(O/C=C/C(OC)C(C)C(OC(C)=O)C(C)C(O)C(C)C(O)C(C)/C=C/C=C(/C)C(=O)N4)O6)CC2)c1 (stereo not drawn)
- T/C [18]: 108 % of control
- T/C [19]: 109 % of control
- T/C [20]: 103 % of control and 108 % of control
- T/C [21]: 115 % of control

SMILES: CN(C)c1ccc(C2c3cc4c(cc3OC3(N5CCCC5)CCCCC23)OCO4)cc1 (stereo not drawn)
- T/C (dose: 60.0 mg/kg/injection, schedule: Q01DX005 (ip), vehicle: Klucel (hydroxypropylcellulose) (HPC)): 95 % of control
- T/C (dose: 120.0 mg/kg/injection, schedule: Q01DX005 (ip), vehicle: Klucel (hydroxypropylcellulose) (HPC)): 97 % of control
- T/C (dose: 240.0 mg/kg/injection, schedule: Q01DX005 (ip), vehicle: Klucel (hydroxypropylcellulose) (HPC)): 89 % of control

SMILES: Cc1cccc(Cl)c1NC(=O)NCCCN1CCOCC1
- T/C [6]: 102 % of control
- T/C [7]: 100 % of control
- T/C [8]: 112 % of control

SMILES: CC(C)(C)CC(C)(C)C/C=C/C[N+](C)(C)C/C=C/CC(C)(C)CC(C)(C)C
- T/C (dose: 12.5 mg/kg/injection, schedule: Q04DX002 (ip), vehicle: saline): 102 % of control
- T/C (dose: 25.0 mg/kg/injection, schedule: Q04DX002 (ip), vehicle: saline): 95 % of control

SMILES: C[C](C)(C)[Ge]([O][Ge]([c]1ccccc1)[c]1ccccc1)([O][Ge]([c]1ccccc1)[c]1ccccc1)[C](C)(C)C
- T/C [1]: 103 % of control
- T/C [2]: 103 % of control
- T/C [6]: 110 % of control and 117 % of control
- T/C [7]: 117 % of control

SMILES: CSc1nc(=O)c(=O)nc(Nc2ccccc2)n1-c1ccccc1
- T/C [20]: 86 % of control
- T/C (dose: 200.0 mg/kg/injection, schedule: Q01DX009 (ip), vehicle: saline with Tween-80): 87 % of control

SMILES: CCN(CC)Cc1cc(N=Nc2ccc(N(C)C)cc2)ccc1O
- T/C [9]: 88 % of control
- T/C [10]: 88 % of control

SMILES: COc1cc2c(cc1OC)C(CCN)=NCC2
- T/C (dose: 25.0 mg/kg/injection, schedule: Q01DX009 (ip), vehicle: saline sonified): 95 % of control
- T/C (dose: 50.0 mg/kg/injection, schedule: Q01DX009 (ip), vehicle: saline sonified): 100 % of control
- T/C (dose: 100.0 mg/kg/injection, schedule: Q01DX009 (ip), vehicle: saline sonified): 100 % of control

SMILES: CC(C(=O)O)C1(O)CCCCC1 (stereo not drawn)
- T/C [18]: 99 % of control
- T/C [19]: 105 % of control
- T/C [20]: 102 % of control
- T/C [21]: 106 % of control

SMILES: CNC(=O)OCc1c(COC(=O)NC)c(-c2ccc(C(F)(F)F)cc2)n(C)c1C
- T/C (dose: 3.13 mg/kg/injection, schedule: Q01DX009 (ip), vehicle: distilled water + Tween-80): 123 % of control
- T/C (dose: 50.0 mg/kg/injection, schedule: Q01DX009 (ip), vehicle: distilled water + Tween-80): 115 % of control

SMILES: COC1N(C2CC(O)C(CO)O2)C(=O)NC(=O)C1(F)Br (stereo not drawn)
- T/C (dose: 178.0 mg/kg/injection, schedule: Q04DX003 (ip), vehicle: saline): 118 % of control

SMILES: CC(=O)C1(CCC(C)(S(=O)(=O)c2ccccc2)S(=O)(=O)c2ccccc2)CCCCC1=O (stereo not drawn)
- T/C [15]: 99 % of control
- T/C [16]: 100 % of control
- T/C [17]: 106 % of control

SMILES: CSC(=S)N/N=C/c1ccc[nH]1
- T/C [11]: 100 % of control
- T/C [12]: 94 % of control

SMILES: CNc1ccc(O)cc1
- T/C (dose: 5.0 mg/kg/injection, schedule: Q01DX009 (ip), vehicle: saline sonified): 100 % of control
- T/C (dose: 10.0 mg/kg/injection, schedule: Q01DX009 (ip), vehicle: saline sonified): 104 % of control
- T/C (dose: 20.0 mg/kg/injection, schedule: Q01DX009 (ip), vehicle: saline sonified): 100 % of control
